Assay [1] relates to T-helper (Th) lymphocytes. The note with it: mice immunized with HBsAg; linear and cyclic forms; cited from earlier work.
Assay [2] relates to T-helper (Th) lymphocytes. The note with it: humans immunized with HBsAg; linear and cyclic forms; cited from earlier work.
Assay [3] relates to antibodies recognizing the (139-147) segment of the S-protein (reaction with HBsAg). Nature of the assay: Inhibition of attachment of antibodies recognizing S(139-147) to HBsAg-coated wells (comparative antigenicity of replacement set peptides). The format is binding, rabbit. How it is done: FIG. 1. concerns the relative inhibitory activity of replacement set peptides on the reaction of antibodies recognizing the (139-147) segment of the S-protein with HBsAg. The concentration of each peptide at which the attachment of antibodies to solid phase HBsAg was reduced by 50% (C50) was determined. C50 of the parent peptide (sequence shown on top of the bars) was divided by C50 for each inhibitory peptide and the log10 of the ratio was plotted on the ordinate. Amino acid residues replacing amino acids in the parent sequence are shown on the top of each bar. The sequence numbers of residues being replaced in the parent sequence are shown on the bottom of the bar groups.
Wells of 96-well polystryene plates (Removawell, Immunolon II, Dynatech Laboratories, Chantilly, Va.) were coated with HBsAg subtype adw (200 μl; 100 μg/ml in 0.01 M Tris HCl pH 8.8) overnight at 20° C. The wells were then coated with a mixture of bovine serum albumin (BSA) and gelatin (10 and 2.5 mg/ml, respectively) in 0.14 M NaCl, 0.01 M Tris, 0.02% NaN3 (TS). […] The diluted antiserum, without added peptides, and normal rabbit serum served as positive and negative controls, respectively. Aliquots of the diluted rabbit sera with or without the peptides (200 μl) were added to the HBsAg-coated wells. After overnight incubation at 25° C., the plates were washed with 200 μl of TS and ^125 I-labeled anti-rabbit IgG (Kirkegaard & Perry Laboratories, Inc., Gaithersburg, Md.; 200,000 cpm diluted 1:1 with TSBG) were added to the wells. After incubation for 2 hours at 37° C., the wells were washed with TS and counted for radioactivity. Radioactivity, corrected for counts corresponding to diluted normal rabbit serum, was plotted against the log10 of the concentration of the respective peptides. […]

The test system of assay [4] is Murine T cells primed with HBsAg, subtype ayr. Nature of the assay: In vitro proliferation (3H-TdR incorporation) of T cells from Balb/c mice primed with HBsAg subtype ayr (FIG. 3). Type of assay: cell-based, mouse (Balb/c). The text has this:
FIG. 3. depicts relative T cell-stimulatory activity of replacement set peptides expressed as a percentage of stimulation elicited by the parent peptide. Murine T cells were obtained by nylon wool column purification of Balb/c lymph node cells primed with HBsAg, subtype ayr (Scripps Laboratories, San Diego, Calif.). For comparison, the T cell-stimulatory response to rHBsAg, subtype ad(32,657), HBsAg subtype ayr (54,640), parent peptide (16,073=100%) and media control (330) were examined at optimal concentrations for each antigen. Values shown in parentheses are mean cpms corresponding to ^3 H-TdR incorporation measured in triplicate. Amino acid residues replacing amino acids in the parent sequence are shown at the bottom of the bars.
(§1) Balb/c mice were immunized in the hind foot pads, either with 0.5 μg of RecombiVax HB or with HBsAg subtype ayw (Scripps Laboratories), on day 0, 14 and 21. One week after the last injection, the animals were sacrificed and the popliteal lymph nodes were collected. The nodes were teased apart and the dispersed cells were then washed twice in RPMI-1640 medium without any serum supplement and once in RPMI medium containing 10% bovine calf serum. A cell count was made and the cell concentration was adjusted so that T cell enrichment was then done at 1×10^8 cells/0.6g of packed nylon wool column. […]

Assay [5] has as its system Murine T cells primed to rHBsAg, subtype ad. The assay can be described thus: In vitro proliferation (3H-TdR incorporation) of T cells from Balb/c mice primed with rHBsAg subtype ad (FIG. 4). The note with it: mice primed with HBsAg ad. The format is cell-based, mouse (Balb/c).
Description: FIG. 4. depicts relative T cell-stimulatory activity of replacement set peptides expressed as a percentage of stimulation elicited by the parent peptide. Murine T cells were obtained by nylon wool column purification of Balb/c lymph node cells primed to rHBsAg, subtype ad (RecombiVax HB, Merck Sharp & Dohme). For comparison the T cells-stimulatory response to rHBsAg, subtype ad (97,024), rHBsAg subtype ayr (64,878), parent peptide (44,916=100%) and media control (1,873) was examined at optimal concentrations for each antigen. Values shown in parentheses are mean cpms corresponding to ^3 H-TdR incorporation measured in triplicate. Amino acid residues replacing amino acids in the parent sequence are shown at the bottom of the bars.
as §1

The test system of assay [6] is anti-HBs. The note with it: cited from earlier work.
Assay [7] has as its system native HBsAg. As to conditions: after polymerization with glutaraldehyde; cited from earlier work.
Assay [8] has as its system Human peripheral blood mononuclear cells (PBMC). The assay can be described thus: In vitro proliferation (3H-TdR incorporation) of human PBMC / T cells from rHBsAg vaccinees (FIG. 5). Type of assay: cell-based. As to conditions: humans immunized with recombinant HBsAg vaccine. The text has this: Human peripheral blood mononuclear cells (PBMC) were obtained from volunteers who had received the full course of the rHBsAg vaccine (Merck Sharp & Dohme). Donor 1 .box-solid. Donor 2 z1 Donor 3 .quadrature. Donor 4 z2 For comparison average T cell-stimulatory response to rHBsAg subtype ad (146,478), parent peptide (96,930=100%) and media control (1,147) was examined at optimal concentrations for each antigen. Values expressed in parentheses are mean cpms of ^3 H-TdR incorporation of triplicate wells. Amino acid residues replacing amino acids in the parent sequence are shown at the bottom of the bars.
Sixty ml of blood was collected (in heparin containing syringes) from the antecubital vein of individuals who were vaccinated with a recombinant hepatitis B vaccine (RecombiVax HB; Merck, Sharp and Dohme). […]
Peripheral blood mononuclear cells were cultured in 96 well flat bottom plates at a density of 2.5×10^5 cells/100 μl per well in RPMI-1640 medium supplemented with 2mM glutamine, 100 units/ml penicillin, 100 μg/ml streptomycin, 50 μg/ml gentamycin and 10% human AB-positive serum. […] Proliferation, as measured by thymidine incorporation, was determined by liquid scintillation spectroscopy. Results are expressed as mean counts per minute (cpm) for triplicate cultures.

Where two headings read alike, the source gives them in different places. Ends that are not written are not given here.

Data on 4 substances can be found in patent US6319501A, “Method of immunizing against hepatitis B virus” (Health Research, Inc., priority 1993, dated 2001).

Turning to “peptide S(139-147): peptide S(139-147) in both linear and cyclic forms (LYLPAGGSS; also: linear and cyclic forms; UniProt P03141 139-147, looked up, fragment)”, the “proliferation of T-helper lymphocytes (in words)” value in assay [1] and in assay [2] was “elicited the proliferation of T-helper (Th) lymphocytes” each time.
Turning to “CTKPTDGNC [S(139-147) peptide with threonine at position 143, corresponding to S-protein subtype ad]”, in assay [3], the “inhibition of attachment of anti-HBs to HBsAg-coated wells, preliminary results (in words)” value is “inhibited the attachment of anti-HBs to HBsAg-coated wells”. Besides, the “T-cell proliferative response / tolerance of replacement (in words)” value in assay [4] was “most favored replacement”; in assay [5] it was “much more effective in eliciting proliferation of T-cells from mice immunized with HBsAg ad in comparison with the ay specific peptide”.
Consider “cyclic peptide corresponding to the sequence S(139-147): cyclic peptide S(139-147) from the S-protein subtype adw with a disulfide bond between residues (139-147)”, for which, in assay [6], the “binding / affinity to anti-HBs (in words)” value is “affinity similar to that determined for the reaction between native HBsAg and anti-HBs”. Also, the “antibodies elicited (in words)” value in assay [7] is on record as “elicited antibodies reactive with native HBsAg”.
Regarding CTKPSDGNC, the IC50 in assay [3] (HBsAg-coated wells, rabbit antiserum to S(135-155) diluted 150-fold, read-out: concentration of peptide at which a 50% inhibition of anti-HBs attachment occurred (C50)) is 56 nM. In assay [3], the “inhibition of attachment of anti-HBs to HBsAg-coated wells, preliminary results (in words)” value is reported as “inhibited the attachment of anti-HBs to HBsAg-coated wells”. Besides, the “T-cell proliferative response / tolerance of replacement (in words)” value in assay [4] was “much more effective in eliciting proliferation of T-cells from mice immunized with HBsAg ayr in comparison with the ad-specific peptide”; in assay [5], “most tolerated”; in assay [8], “responded virtually equally”.
